From patent US12378219B2, “Crystalline forms of a MAGL inhibitor” (H. LUNDBECK A/S, priority 2022, dated 2025)

Assays:
[1] = Dynamic vapor sorption (DVS); type: physicochemical; details: up to 90% RH
Method: Example 6: Procedures Used for Dynamic Vapor Sorption (DVS) Measurements
DVS was measured using SMS DVS advantage 01 changing the relative humidity from 0% RH to 95% RH in steps of 10% RH (5% between 90 and 95% RH). 2 cycles were performed using 1-10 mg, starting at 30% RH.

[2] = Relative thermodynamic stability of crystalline forms (DSC, XRPD after heating, slurry); type: physicochemical; details: form 1 converts to form 3 on heating to 150° C. and upon slurry
Method: In a vial Compound (I) form 1 (500 mg) were slurried in a 1:1 mixture of MeCN/water at room temperature for 24 hours. A small sample of wet precipitate was analyzed by XRPD showing the diffractogram of FIG. 3.
DSC was measured using a TA-Instruments Discovery-DSC calibrated at 5°/min to give the melting point as onset value. About 2 mg of sample is heated 5°/min under nitrogen flow in a closed pan with a pinhole in the lid.
Thus, Compound (I) Form 3 was formed upon heating of Compound (I) Form 1.

MAGL [3] = biological target: T1, MAGL (Homo sapiens, UniProt Q99685); experiment: In vitro competitive activity-based protein profiling (ABPP) in PC3 human cell membrane proteomes; type: biochemical; details: 30 min preincubation at 37° C., read-out: MAGL % inh. 1 μM (human PC3)
T1 construct: measuring fluorescent intensity of gel bands corresponding to MAGL; endogenous in cells; host or cells: PC3 human cells (membrane proteome)
T1 sequence (Q99685 1-303): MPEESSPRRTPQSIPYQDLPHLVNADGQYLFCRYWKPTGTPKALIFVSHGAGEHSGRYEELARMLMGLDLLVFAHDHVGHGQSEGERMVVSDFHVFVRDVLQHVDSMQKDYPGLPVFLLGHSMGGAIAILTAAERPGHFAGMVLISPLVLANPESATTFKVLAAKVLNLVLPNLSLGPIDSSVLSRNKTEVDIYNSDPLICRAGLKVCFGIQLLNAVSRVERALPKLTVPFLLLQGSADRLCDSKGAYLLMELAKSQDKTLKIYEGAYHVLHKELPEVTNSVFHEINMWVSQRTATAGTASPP
Method: In Vitro Competitive Activity-Based Protein Profiling
PC3 human cell membrane proteomes (50 μL, 2.0 mg/mL total protein concentration) were preincubated with varying concentrations of Compound (I) at 37° C. After 30 min, the ABPP probe JW912-Bodipy (1.0 μL, 50 μM in DMSO) was added and the mixture was incubated for 30 min at room temperature. Reactions were quenched with SDS loading buffer (15 μL—4×) and run on SDS-PAGE. Following gel imaging, serine hydrolase activity was determined by measuring fluorescent intensity of gel bands corresponding to MAGL using ImageJ 1.43u software. Intensities were converted to percent enzyme activity by normalizing to DMSO controls. IC50 values were determined by fitting percent enzyme activities to a non-linear regression, 4-parameter, sigmoidal dose response function in Prism GraphPad.

MAGL [4] = biological target: T2, MAGL (Mus musculus, UniProt O35678); experiment: In vivo MAGL inhibition, brain proteomes after oral gavage; details: 5 mg/kg oral gavage; C57Bl/6J; brain proteomes 4 h after administration
T2 construct: brain proteomes were prepared and analyzed according to previously established methods; from tissue; host or cells: brain of wild-type C57Bl/6J animals
T2 sequence (O35678 1-303): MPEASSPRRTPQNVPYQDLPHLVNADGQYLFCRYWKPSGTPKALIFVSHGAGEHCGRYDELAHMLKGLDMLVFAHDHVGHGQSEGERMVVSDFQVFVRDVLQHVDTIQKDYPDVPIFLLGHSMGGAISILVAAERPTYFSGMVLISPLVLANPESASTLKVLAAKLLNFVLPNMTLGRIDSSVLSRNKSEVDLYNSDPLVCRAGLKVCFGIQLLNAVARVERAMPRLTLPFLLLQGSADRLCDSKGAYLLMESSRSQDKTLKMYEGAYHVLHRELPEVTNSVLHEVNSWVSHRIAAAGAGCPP
Method: Compound (I) were administered to wild-type C57Bl/6J by oral gavage in a vehicle of polyethylene glycol. Each animal was sacrificed 4 h following administration and brain proteomes were prepared and analyzed according to previously established methods (See Niphakis, M. J., et al. (2011) ACS Chem. Neurosci. and Long, J. Z., et al. Nat. Chem. Biol. 5:37-44).

**Q.** Which “water uptake (DVS)” value [1] does the source give for `O=C(Nc1cccnn1)[C@H]1CC12CCN(C(=O)OC(C(F)(F)F)C(F)(F)F)CC2` [Compound (I) form 1, 1,1,1,3,3,3-Hexafluoropropan-2-yl (S)-1-(pyridazin-3-ylcarbamoyl)-6-azaspiro[2.5]octane-6-carboxylate form 1] here?
**A.** 1.4 wt %

**Q.** With `O=C(Nc1cccnn1)[C@H]1CC12CCN(C(=O)OC(C(F)(F)F)C(F)(F)F)CC2` [Compound (I) form 3, 1,1,1,3,3,3-Hexafluoropropan-2-yl (S)-1-(pyridazin-3-ylcarbamoyl)-6-azaspiro[2.5]octane-6-carboxylate form 3] as the compound, how does the “water uptake (DVS)” value [1] read?
**A.** around 0.1 wt %

**Q.** And the “thermodynamic stability relative to the other crystalline form” value [2]?
**A.** thermodynamically more stable than Compound (I) Form 1

**Q.** Which results are given for `O=C(Nc1cccnn1)[C@H]1CC12CCN(C(=O)OC(C(F)(F)F)C(F)(F)F)CC2` [Compound (I), 1,1,1,3,3,3-Hexafluoropropan-2-yl (S)-1-(pyridazin-3-ylcarbamoyl)-6-azaspiro[2.5]octane-6-carboxylate]?
**A.** inhibition at 1 µM (MAGL [3]): 100%; MAGL % inh. 5 mg/kg (mouse) (MAGL [4]): 100%
